Counter-ions that a name gives are not always drawn. Some results are limits rather than exact numbers.

For one experiment, the target named is T1, PI3Kγ (Homo sapiens, UniProt P48736).
T1 construct: purchased Millipore Ltd (Billerica, Mass.)
Description: PI3K enzyme inhibitory activity in the cell free assay (ADP-Glo Kinase Assay). In kind it is biochemical. The conditions noted are these: human recombinant PI3Kγ, ATP 30 μM; read-out: PI3K gamma inhibition. Background: ADP-Glo turns the ADP formed in a reaction into a luminescent signal.

For a further experiment, the target named is T2, PI3Kδ (Homo sapiens, UniProt O00329).
T2 construct: purchased Millipore Ltd (Billerica, Mass.)
T2 sequence (O00329 1-1044): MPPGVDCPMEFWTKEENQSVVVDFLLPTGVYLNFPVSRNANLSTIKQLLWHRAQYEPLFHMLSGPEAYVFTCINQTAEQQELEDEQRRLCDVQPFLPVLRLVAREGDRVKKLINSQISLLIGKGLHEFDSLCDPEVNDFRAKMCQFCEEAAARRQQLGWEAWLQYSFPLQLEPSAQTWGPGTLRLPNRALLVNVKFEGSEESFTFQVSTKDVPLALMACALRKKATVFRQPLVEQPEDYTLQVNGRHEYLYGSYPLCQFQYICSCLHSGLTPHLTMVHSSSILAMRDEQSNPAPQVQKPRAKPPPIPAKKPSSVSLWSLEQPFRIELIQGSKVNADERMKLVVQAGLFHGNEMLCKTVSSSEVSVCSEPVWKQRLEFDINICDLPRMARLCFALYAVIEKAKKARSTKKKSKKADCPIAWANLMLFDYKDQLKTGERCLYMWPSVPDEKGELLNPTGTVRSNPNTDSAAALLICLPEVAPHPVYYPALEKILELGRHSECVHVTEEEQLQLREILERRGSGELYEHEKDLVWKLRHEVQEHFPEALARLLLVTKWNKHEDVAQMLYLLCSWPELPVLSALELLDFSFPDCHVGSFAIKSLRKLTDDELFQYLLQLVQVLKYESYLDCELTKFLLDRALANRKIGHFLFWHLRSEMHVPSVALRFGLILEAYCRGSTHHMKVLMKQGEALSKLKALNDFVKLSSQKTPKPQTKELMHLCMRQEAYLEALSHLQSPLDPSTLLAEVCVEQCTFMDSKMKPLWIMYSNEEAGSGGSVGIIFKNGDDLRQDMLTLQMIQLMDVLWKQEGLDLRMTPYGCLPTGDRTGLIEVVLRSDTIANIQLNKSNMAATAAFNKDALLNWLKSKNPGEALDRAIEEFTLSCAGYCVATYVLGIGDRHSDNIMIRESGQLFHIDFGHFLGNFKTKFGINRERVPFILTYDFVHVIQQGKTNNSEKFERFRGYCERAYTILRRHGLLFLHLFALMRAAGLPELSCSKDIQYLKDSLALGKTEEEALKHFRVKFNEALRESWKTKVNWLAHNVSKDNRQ
The experiment is described as above. The conditions noted are these: human recombinant PI3Kδ, ATP 80 μM; read-out: PI3K delta inhibition. In kind it is biochemical.

T1 sequence (P48736 whole entry): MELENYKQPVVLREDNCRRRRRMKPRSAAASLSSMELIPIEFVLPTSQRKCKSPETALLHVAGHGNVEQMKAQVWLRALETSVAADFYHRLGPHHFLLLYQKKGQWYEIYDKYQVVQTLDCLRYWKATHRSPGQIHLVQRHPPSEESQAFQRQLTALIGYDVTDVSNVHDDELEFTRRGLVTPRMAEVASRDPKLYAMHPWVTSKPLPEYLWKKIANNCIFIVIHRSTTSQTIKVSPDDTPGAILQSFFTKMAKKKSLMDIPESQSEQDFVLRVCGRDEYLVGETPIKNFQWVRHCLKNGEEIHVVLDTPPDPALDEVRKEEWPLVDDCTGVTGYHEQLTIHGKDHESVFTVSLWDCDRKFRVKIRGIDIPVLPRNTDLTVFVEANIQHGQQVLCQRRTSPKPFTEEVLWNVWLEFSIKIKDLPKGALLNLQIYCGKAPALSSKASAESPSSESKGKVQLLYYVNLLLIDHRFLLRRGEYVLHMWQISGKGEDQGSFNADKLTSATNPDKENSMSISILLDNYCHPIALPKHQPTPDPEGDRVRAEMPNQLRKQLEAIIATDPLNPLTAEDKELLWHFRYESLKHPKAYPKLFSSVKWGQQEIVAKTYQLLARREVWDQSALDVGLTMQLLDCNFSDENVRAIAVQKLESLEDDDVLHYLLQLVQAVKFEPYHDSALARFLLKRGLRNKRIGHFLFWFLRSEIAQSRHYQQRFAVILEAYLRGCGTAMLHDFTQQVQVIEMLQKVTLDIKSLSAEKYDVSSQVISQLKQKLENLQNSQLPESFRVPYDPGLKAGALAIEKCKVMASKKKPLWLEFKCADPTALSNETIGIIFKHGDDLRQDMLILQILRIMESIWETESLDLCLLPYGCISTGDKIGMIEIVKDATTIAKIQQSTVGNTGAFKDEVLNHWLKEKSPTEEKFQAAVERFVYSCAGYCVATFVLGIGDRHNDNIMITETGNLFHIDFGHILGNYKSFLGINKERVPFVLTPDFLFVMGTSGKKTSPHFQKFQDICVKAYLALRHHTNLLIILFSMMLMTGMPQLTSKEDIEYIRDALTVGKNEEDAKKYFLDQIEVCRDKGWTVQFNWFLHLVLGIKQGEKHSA

For the molecule `CC(c1oc(=O)c2ccccc2c1C1=CCN(C)CC1)n1nc(-c2cc(O)cc(F)c2)c2c(N)ncnc21` (single isomer, unassigned) [Example 46b, 3-1-(4-amino-3-(3-fluoro-5-hydroxyphenyl)-1H-pyrazolo[3,4-d]pyrimidin-1-yl)ethyl)-4-(1-methyl-1,2,3,6-tetrahydropyridin-4-yl)-1H-isochromen-1-one hydrochloride], the values for the IC50 at PI3Kγ and at PI3Kδ were above 1000 nM and 10 to 1000 nM, respectively.
For `CC(c1oc(=O)c2ccccc2c1-c1cccc(CN(C)C)c1)n1nc(-c2cc(O)cc(F)c2)c2c(N)ncnc21` (single isomer, unassigned) [Example 67b, 3-(1-(4-amino-3-(3-fluoro-5-hydroxyphenyl)-1H-pyrazolo[3,4-d]pyrimidin-1-yl)ethyl)-4-(3-((dimethylamino)methyl)phenyl)-1H-isochromen-1-one], the IC50 at PI3Kδ lay within 10 to 1000 nM.
Regarding `CC(c1oc(=O)c2ccccc2c1-c1ccc(CN2CCCCC2)s1)n1nc(-c2cc(O)cc(F)c2)c2c(N)ncnc21` (single isomer, unassigned) [Example 68a, 3-(1-(4-amino-3-(3-fluoro-5-hydroxyphenyl)-1H-pyrazolo[3,4-d]pyrimidin-1-yl)ethyl)-4-(5-(piperidin-1-ylmethyl)thiophen-2-yl)-1H-isochromen-1-one hydrochloride single enantiomers], at PI3Kδ, the IC50 lay within 10 to 1000 nM.
The same measure, in the same setting: the value for `CC(c1oc(=O)c2ccccc2c1-c1ccc(CN2CCN(CCO)CC2)s1)n1nc(-c2cc(O)cc(F)c2)c2c(N)ncnc21` (single isomer, unassigned) [Example 76a, 3-(1-(4-amino-3-(3-fluoro-5-hydroxyphenyl)-1H-pyrazolo[3,4-d]pyrimidin-1-yl)ethyl)-4-(5-((4-(2-hydroxyethyl)piperazin-1-yl)methyl)thiophen-2-yl)-1H-isochromen-1-one hydrochloride] was 10 to 1000 nM.
For `CC(c1oc(=O)c2ccccc2c1-c1ccc(CCCN(C)C)cc1)n1nc(-c2cc(O)cc(F)c2)c2c(N)ncnc21` (single isomer, unassigned) [Example 138a, 3-(1-(4-amino-3-(3-fluoro-5-hydroxyphenyl)-1H-pyrazolo[3,4-d]pyrimidin-1-yl)ethyl)-4-(4-(3-(dimethylamino)propyl)phenyl)-1H-isochromen-1-one single enantiomers], at PI3Kδ, the IC50 was above 1000 nM.
For the molecule `CC(c1oc(=O)c2ccccc2c1-c1ccccc1)n1cnc2c(N)ncnc21` (stereo not drawn) [Example 5, 3-(1-(6-Amino-9H-1-purin-9-yl)ethyl)-4-phenyl-1H-isochromen-1-one], the IC50 at PI3Kγ and at PI3Kδ was 10 to 1000 nM throughout.
As to `Cc1cccc(-c2c(C(C)n3cnc4c(N)ncnc43)oc(=O)c3ccccc23)c1` (stereo not drawn) [Example 6, 3-(1-(6-Amino-9H-purin-9-yl)ethyl)-4-m-tolyl-1H-isochromen-1-one], the IC50 at PI3Kγ and on PI3Kδ was 10 to 1000 nM each time.
Regarding `CC(c1oc(=O)c2ccccc2c1-c1cccc(F)c1)n1cnc2c(N)ncnc21` (stereo not drawn) [Example 7, 3-(1-(6-Amino-9H-purin-9-yl)ethyl)-4-(3-fluorophenyl)-1H-isochromen-1-one], the IC50 at PI3Kγ and at PI3Kδ was 10 to 1000 nM in each case.
`CC(c1oc(=O)c2ccccc2c1-c1cccc(N(C)C)c1)n1cnc2c(N)ncnc21` (stereo not drawn) [Example 8, 3-(1-(6-Amino-9H-purin-9-yl)ethyl)-4-(3-(dimethylamino)phenyl)-1H-isochromen-1-one]: the IC50 on PI3Kγ and at PI3Kδ was 10 to 1000 nM throughout.
On to `CC(c1oc(=O)c2ccccc2c1-c1cccc(S(=O)(=O)N2CCOCC2)c1)n1cnc2c(N)ncnc21` (stereo not drawn) [Example 9, 3-(1-(6-Amino-9H-purin-9-yl)ethyl)-4-(3-(morpholinosulfonyl)phenyl)-1H-isochromen-1-one], for which the IC50 on PI3Kγ and at PI3Kδ was 10 to 1000 nM throughout.
`O=c1oc(CSc2ncnc3[nH]cnc23)c(-c2ccccc2)c2ccccc12` [Example 10, 3-((9H-Purin-6-ylthio)methyl)-4-phenyl-1H-isochromen-1-one]: the IC50 on PI3Kγ and at PI3Kδ was above 1000 nM throughout.
For `Cc1cccc(-c2c(C(C)Sc3ncnc4[nH]cnc34)oc(=O)c3ccccc23)c1` (stereo not drawn) [Example 13, 3-(1-(9H-Purin-6-ylthio)ethyl)-4-m-tolyl-1H-isochromen-1-one], the IC50 at PI3Kγ is above 1000 nM; at PI3Kδ, 10 to 1000 nM.
Regarding `Cc1cc(-c2c(C(C)n3ncc4c(N)ncnc43)oc(=O)c3ccccc23)ccn1` (stereo not drawn) [Example 19, 3-(1-(4-Amino-1H-pyrazolo[3,4-d]pyrimidin-1-yl)ethyl)-4-(2-methylpyridin-4-yl)-1H-isochromen-1-one], on PI3Kδ, the IC50 fell in the range of 10 to 1000 nM.
Still for that read-out and setting: under `CC(c1oc(=O)c2ccccc2c1Cc1ccccc1)n1ncc2c(N)ncnc21` (stereo not drawn) [Example 20, 3-(1-(4-Amino-1H-pyrazolo[3,4-d]pyrimidin-1-yl)ethyl)-4-benzyl-1H-isochromen-1-one] stands 10 to 1000 nM; under `CC(c1oc(=O)c2ccccc2c1-c1ccccc1)n1nc(-c2cnc(O)nc2)c2c(N)ncnc21` (stereo not drawn) [Example 56, 3-(1-(4-amino-3-(2-hydroxypyrimidin-5-yl)-1H-pyrazolo[3,4-d]pyrimidin-1-yl)ethyl)-4-phenyl-1H-isochromen-1-one], 10 to 1000 nM.
As for `CC(c1oc(=O)c2ccccc2c1-c1ccccc1)n1nc(-c2cncc(O)n2)c2c(N)ncnc21` (stereo not drawn) [Example 90, 3-(1-(4-amino-3-(6-hydroxypyrazin-2-yl)-1H-pyrazolo[3,4-d]pyrimidin-1-yl)ethyl)-4-phenyl-1H-isochromen-1-one], the IC50 on PI3Kδ is 10 to 1000 nM.
Consider `CC(c1oc(=O)c2ccccc2c1-c1ccccc1)n1nc(-c2cc(F)cc(Cl)c2)c2c(N)ncnc21` (stereo not drawn) [Example 95, 3-(1-(4-amino-3-(3-chloro-5-fluorophenyl)-1H-pyrazolo[3,4-d]pyrimidin-1-yl)ethyl)-4-phenyl-1H-isochromen-1-one], for which the IC50 at PI3Kδ is above 1000 nM.
Same read-out and setting: the value for `CC(c1oc(=O)c2ccccc2c1-c1ccccc1)n1nc(-c2cncc(S(C)(=O)=O)c2)c2c(N)ncnc21` (stereo not drawn) [Example 96, 3-(1-(4-amino-3-(5-(methylsulfonyl)pyridin-3-yl)-1H-pyrazolo[3,4-d]pyrimidin-1-yl)ethyl)-4-phenyl-1H-isochromen-1-one] was 10 to 1000 nM; that for `CC(c1oc(=O)c2ccccc2c1-c1ccccc1)n1nc(-c2cnc(O)c(F)c2)c2c(N)ncnc21` (stereo not drawn) [Example 98, 3-(1-(4-amino-3-(5-fluoro-6-hydroxypyridin-3-yl)-1H-pyrazolo[3,4-d]pyrimidin-1-yl)ethyl)-4-phenyl-1H-isochromen-1-one] was 10 to 1000 nM; that for `CC(c1oc(=O)c2ccccc2c1-c1ccccc1)n1nc(-c2cncc(C(F)(F)F)c2)c2c(N)ncnc21` (stereo not drawn) [Example 100, 3-(1-(4-amino-3-(5-(trifluoromethyl)pyridin-3-yl)-1H-pyrazolo[3,4-d]pyrimidin-1-yl)ethyl)-4-phenyl-1H-isochromen-1-one] was 10 to 1000 nM.
In the case of `CC(c1oc(=O)c2ccccc2c1-c1ccccc1)n1nc(-c2cc(O)cc(S(F)(F)(F)(F)F)c2)c2c(N)ncnc21` (stereo not drawn) [Example 101, 3-(1-(4-amino-3-(5-hydroxy-3-sulfurpentafluoride)-1H-pyrazolo[3,4-d]pyrimidin-1-yl)ethyl)-4-phenyl-1H-isochromen-1-one], at PI3Kδ, the IC50 is 10 to 1000 nM.
In the case of `CC(c1oc(=O)c2ccccc2c1-c1ccccc1)n1nc(-c2cncc(C#N)c2)c2c(N)ncnc21` (stereo not drawn) [Example 102, 5-(4-amino-1-(1-(1-oxo-4-phenyl-1H-isochromen-3-yl)ethyl)-1H-pyrazolo[3,4-d]pyrimidin-3-yl)nicotinonitrile], the IC50 on PI3Kγ was in the range of 10 to 1000 nM.
On to `CC(Nc1ncnc2sccc12)c1oc(=O)c2ccccc2c1-c1ccccc1` (stereo not drawn) [Example 108, 4-phenyl-3-(1-(thieno[2,3-d]pyrimidin-4-ylamino)ethyl)-1H-isochromen-1-one], for which the IC50 at PI3Kδ was in the range of 10 to 1000 nM.
In the case of `CC(c1oc(=O)c2ccccc2c1-c1ccccc1)n1nc(-c2ccc3[nH]nc(N)c3c2)c2c(N)ncnc21` (stereo not drawn) [Example 113, 3-(1-(4-amino-3-(3-amino-1H-indazol-5-yl)-1H-pyrazolo[3,4-d]pyrimidin-1-yl)ethyl)-4-phenyl-1H-isochromen-1-one], the IC50 at PI3Kδ was in the range of 10 to 1000 nM.
Same read-out and setting: the value for `CC(c1oc(=O)c2ccccc2c1-c1ccc(CN2CCNCC2)cc1)n1ncc2c(N)ncnc21` (stereo not drawn) [Example 127, 3-(1-(4-amino-1H-pyrazolo[3,4-d]pyrimidin-1-yl)ethyl)-4-(4-(piperazin-1-ylmethyl)phenyl)-1H-isochromen-1-one hydrochloride] was above 1000 nM.

For the origin of these results see US9321776B2, “Isochromene derivatives as phoshoinositide 3-kinases inhibitors” (CHIESI FARMACEUTICI S.p.A., priority 2013, dated 2016).
